Converted amounts (≈) assume the structure as drawn.
Columns and labels:
Assay in all cases: antibacterial activity (MIC), standard in vitro dilution test
[1] = tested on: Escherichia coli NIHJ JC-2 strain; type: cell-based; details: for MIC: Escherichia coli, NIHJJC2, test bacterium strain 10^5 cfu/ml, read-out: MIC, Escherichia coli NIHJ JC-2 strain; for MIC, Escherichia coli NIHJ JC-2 strain: test bacterium strain 10^5 cfu/ml
Text: (§1) With respect to certain compounds (I) of the present invention, their general antibacterial activities and their antibacterial activities (MIC) against various methicillin-resistant strains of Staphylococcus aureus (methicillin-resistant Staphylococcus aureus: MRSA) were investigated. The results will be shown next.
(§2) Of the investigations, the general antibacterial activities were investigated by a standard in vitro dilution test.
(§3) As test bacteria, Staphylococcus aureus 209P JC-1, Escherichia coli NIHJ JC-2 and MRSAs were used.

[2] = tested on: Staphylococcus aureus 209P JC-1 strain; type: cell-based; details: test bacterium strain 10^5 cfu/ml; for MIC: Staphylococcus aureus, 209P, read-out: MIC, Staphylococcus aureus 209P JC-1 strain
Text: as §1, §2, §3

[3] = tested on: MRSA 31 high-resist. (IPM resist.); type: cell-based, Staphylococcus aureus; details: test bacterium strain 10^5 cfu/ml; for MIC: Staphylococcus aureus, MRSA, read-out: MIC, MRSA 31 high-resist. (IPM resist.)
Text: as §1, §2, §3

[4] = tested on: MRSA 33 high-resist. (IPM resist.); type: cell-based, Staphylococcus aureus; details: test bacterium strain 10^5 cfu/ml; for MIC: Staphylococcus aureus, MRSA, read-out: MIC, MRSA 33 high-resist. (IPM resist.)
Text: as §1, §2, §3

MIC [1] [µg/mL]	MIC [2] [µg/mL]	MIC [3] [µg/mL]	MIC [4] [µg/mL]	MIC, Escherichia coli NIHJ JC-2 strain [1] [µg/mL]	MIC, MRSA 31 high-resist. (IPM resist.) [3] [µg/mL]	MIC, MRSA 33 high-resist. (IPM resist.) [4] [µg/mL]	MIC, Staphylococcus aureus 209P JC-1 strain [2] [µg/mL]	Compound
6.25 (≈ 17.7 µM)	0.2 (≈ 0.567 µM)	6.25 (≈ 17.7 µM)	6.25 (≈ 17.7 µM)	–	–	–	–	CC[C@H](O)[C@@H]1C(=O)N2C(C(=O)O)=C(SCc3ccccn3)S[C@H]12 [Ex. 129, (5R,6R)-6-((S)-1-hydroxypropyl)-2-(2-pyridylmethyl)thiopenem-3-carboxylic acid]
12.5 (≈ 30.2 µM)	0.1 (≈ 0.242 µM)	3.13 (≈ 7.57 µM)	3.13 (≈ 7.57 µM)	–	–	–	–	CC[C@H](O)[C@@H]1C(=O)N2C(C(=O)O)=C(S[C@H]3CCN(c4nccs4)C3)S[C@H]12 [Ex. 229]
3.13 (≈ 7.43 µM)	0.2 (≈ 0.474 µM)	6.25 (≈ 14.8 µM)	6.25 (≈ 14.8 µM)	–	–	–	–	CC[C@H](O)[C@@H]1C(=O)N2C(C(=O)O)=C(S[C@H]3CCN(Cc4ccccn4)C3)S[C@H]12 [Ex. 123, (5R,6R)-6-((S)-1-hydroxypropyl)-2-((S)-1-(2-pyridylmethyl)pyrrolidin-3-yl)thiopenem-3-carboxylic acid]
25 (≈ 74.1 µM)	0.1 (≈ 0.296 µM)	6.25 (≈ 18.5 µM)	6.25 (≈ 18.5 µM)	–	–	–	–	CC[C@H](O)[C@@H]1C(=O)N2C(C(=O)O)=C(Sc3ccccc3)S[C@H]12 [Ex. 151, (5R,6R)-6-((S)-1-hydroxypropyl)-2-phenylthiopenem-3-carboxylic acid]
–	0.1 (≈ 0.264 µM)	–	–	3.13 (≈ 8.27 µM)	1.56 (≈ 4.12 µM)	1.56 (≈ 4.12 µM)	–	CC[C@H](O)[C@@H]1C(=O)N2C(C(=O)O)=C(SC3CCc4cccnc43)S[C@H]12 (stereo partly shown) [Ex. 231]
–	–	–	–	12.5 (≈ 33 µM)	3.13 (≈ 8.27 µM)	3.13 (≈ 8.27 µM)	0.05 (≈ 0.132 µM)	CC[C@H](O)[C@@H]1C(=O)N2C(C(=O)O)=C(SC3CCc4cccnc43)S[C@H]12 (stereo partly shown) [Ex. 232]

Continued, compound first:

Compound	MIC [1] [µg/mL]	MIC [2] [µg/mL]	MIC [3] [µg/mL]	MIC [4] [µg/mL]	MIC, Escherichia coli NIHJ JC-2 strain [1] [µg/mL]	MIC, MRSA 31 high-resist. (IPM resist.) [3] [µg/mL]	MIC, MRSA 33 high-resist. (IPM resist.) [4] [µg/mL]	MIC, Staphylococcus aureus 209P JC-1 strain [2] [µg/mL]
CC[C@H](O)[C@@H]1C(=O)N2C(C(=O)O)=C(SC3CCN(C(=N)NC(=O)c4ccccc4)C3)S[C@H]12 (stereo partly shown) [Ex. 218]	25 (≈ 52.5 µM)	0.2 (≈ 0.42 µM)	6.25 (≈ 13.1 µM)	6.25 (≈ 13.1 µM)	–	–	–	–
CC[C@H](O)[C@@H]1C(=O)N2C(C(=O)O)=C(S[C@H]3CCN(CC(=O)c4ccc(C)cc4)C3)S[C@H]12 [Ex. 113, (5R,6R)-6-((S)-1-hydroxypropyl)-2-((S)-1-(2-oxo-2-p-tolylethyl)pyrrolidin-3-yl)-thiopenem-3-carboxylic acid]	0.39 (≈ 0.843 µM)	0.1 (≈ 0.216 µM)	6.25 (≈ 13.5 µM)	6.25 (≈ 13.5 µM)	–	–	–	–
CC[C@H](O)[C@@H]1C(=O)N2C(C(=O)O)=C(SC3CN(C=N)C3)S[C@H]12 [Ex. 254]	0.78 (≈ 2.27 µM)	0.1 (≈ 0.291 µM)	6.25 (≈ 18.2 µM)	6.25 (≈ 18.2 µM)	–	–	–	–
CC[C@H](O)[C@@H]1C(=O)N2C(C(=O)O)=C(S[C@H]3CCN(c4ccc(NC(C)=N)cc4)C3)S[C@H]12 [Ex. 257]	12.5 (≈ 27 µM)	0.05 (≈ 0.108 µM)	3.13 (≈ 6.77 µM)	1.56 (≈ 3.37 µM)	–	–	–	–
CC[C@H](O)[C@@H]1C(=O)N2C(C(=O)O)=C(SCCN)S[C@H]12 [Ex. 140, (5R,6R)-2-(2-aminoethyl)thio-6-((S)-1-hydroxypropyl)penem-3-carboxylic acid]	0.73 (≈ 2.4 µM)	0.1 (≈ 0.329 µM)	6.25 (≈ 20.5 µM)	6.25 (≈ 20.5 µM)	–	–	–	–
CC[C@H](O)[C@@H]1C(=O)N2C(C(=O)O)=C(SCc3ccc(Cl)c(Cl)c3)S[C@H]12 [Ex. 236]	50 (≈ 119 µM)	0.1 (≈ 0.238 µM)	1.56 (≈ 3.71 µM)	1.56 (≈ 3.71 µM)	–	–	–	–
CC[C@H](O)[C@@H]1C(=O)N2C(C(=O)O)=C(SC3CCN(C4CC4)C3)S[C@H]12 (stereo partly shown) [Ex. 235]	0.78 (≈ 2.11 µM)	0.1 (≈ 0.27 µM)	6.25 (≈ 16.9 µM)	6.25 (≈ 16.9 µM)	–	–	–	–
CC[C@H](O)[C@@H]1C(=O)N2C(C(=O)O)=C(S[C@H]3CCN(CC(=O)c4ccc(OC)cc4)C3)S[C@H]12 [Ex. 114, (5R,6R)-6-((S)-1-hydroxypropyl)-2-((S)-1-(2-p-methoxyphenyl-2-oxoethyl)pyrrolidin-3-yl)thiopenem-3-carboxylic acid]	0.2 (≈ 0.418 µM)	0.2 (≈ 0.418 µM)	6.25 (≈ 13.1 µM)	6.25 (≈ 13.1 µM)	–	–	–	–
CC[C@H](O)[C@@H]1C(=O)N2C(C(=O)O)=C(SC3CCN(CC(=O)c4ccccc4C)C3)S[C@H]12 (stereo partly shown) [Ex. 226]	0.39 (≈ 0.843 µM)	0.2 (≈ 0.432 µM)	6.25 (≈ 13.5 µM)	6.25 (≈ 13.5 µM)	–	–	–	–
CC[C@H](O)[C@@H]1C(=O)N2C(C(=O)O)=C(S[C@H]3CCN(C(=N)Nc4ccccc4)C3)S[C@H]12 [Ex. 243]	1.56 (≈ 3.48 µM)	0.2 (≈ 0.446 µM)	6.25 (≈ 13.9 µM)	6.25 (≈ 13.9 µM)	–	–	–	–

From patent US20050004092A1, “Penem derivatives and antimicrobial agent containing the same” (DAIICHI SUNTORY PHARMA CO., LTD., priority 1995, published 2005)
